Test results as given in US11884647B2, “Compounds and methods for targeting pathogenic blood vessels” (THE REGENTS OF THE UNIVERSITY OF CALIFORNIA, priority 2019, dated 2024).
Entries after “also recorded” stand apart in the source; their conditions may differ.

Assays:
PLXDC1 = PLXDC1 receptor activation assay (Gfi1b promotor luciferase reporter); type: cell-based; conditions: treatment 1 day; basal activity of PLXDC1-expressing cells = 1
From the text: (§1) FIG. 5A-B show activation of PLXDC1 and PLXDC2 by small molecules. […] All compound treatments were done for 1 day. Basal promotor activity of the PLXDC1-expressing cells is defined as 1.

PLXDC2 = PLXDC2 receptor activation (Gfi1b promotor luciferase reporter); type: cell-based; conditions: treatment 1 day
From the text: as §1

[1] = tested on: tumor endothelial cells (LL/2 lung cancer tumor); test: Lung LL2 ex vivo model of tumor angiogenesis; type: cell-based, mouse; conditions: Mus musculus, Endothelial cell, 48 h, read-out: Cell death
In short: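 Read-out is live/dead fluorescence imaging (fluorescein diacetate green, propidium iodide red, 10 min at 37° C) at 2×, taken e.g. 48 h after drug addition. Fragments of mouse LL2 tumor are cultured in Matrigel with endothelial growth medium, usually 4 days, until new endothelial cells grow out, then treated.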

[2] = tested on: tumor / tumor blood vessels; test: Tumor animal model, bolus IV injection at day 0, tumor growth and morphology; type: in vivo, mouse; conditions: versus control group
From the text: Treatment was done at day 0 by bolus IV injection. […] Treatment was done at day 0. […] Treatment was done at day 0.

[3] = tested on: pathogenic blood vessels of the retina; test: Ischemia-induced retinopathy in vivo; design: species or system mouse; conditions: subcutaneous injection during return to room air; n=10 retinas
From the text: A. Upper graph: Schematic diagram of the experimental design for ischemia-induced retinopathy. The high oxygen environment caused blood vessel loss (vaso-obliteration). In room air, loss of vessels triggered abnormal angiogenesis that generated pathogenic blood vessels on the top of the retina (marked in yellow in D). Treatment was applied during the return to room air by subcutaneous injection. […] Red signal is blood vessel marker. C. The same retinas in B with vaso-obliteration areas marked in white color. […] D. The same retinas in B with pathogenic blood vessels marked in yellow color. […] FIG. 7A includes a schematic diagram of the experimental design for ischemia-induced retinopathy. The high oxygen environment caused blood vessel loss (vaso-obliteration). In room air, loss of vessels triggered abnormal angiogenesis that generated pathogenic blood vessels on the top of the retina (marked in yellow in FIG. 7D). Treatment was applied during the return to room air by subcutaneous injection. […] The same retinas in B with vaso-obliteration areas marked in white color (FIG. 7C). […] The same retinas in B with pathogenic blood vessels marked in yellow color (FIG. 7D).

[4] = molecular target: T1, extracellular domain of PLXDC1 (PLXDC1-ECD) (Homo sapiens, UniProt Q8IUK5); test: Binding to PLXDC1 extracellular domain by suppression of tryptophan fluorescence
T1 construct: the extracellular domain of PLXDC1 (PLXDC1-ECD)
T1 sequence (Q8IUK5 19-426 limits assumed): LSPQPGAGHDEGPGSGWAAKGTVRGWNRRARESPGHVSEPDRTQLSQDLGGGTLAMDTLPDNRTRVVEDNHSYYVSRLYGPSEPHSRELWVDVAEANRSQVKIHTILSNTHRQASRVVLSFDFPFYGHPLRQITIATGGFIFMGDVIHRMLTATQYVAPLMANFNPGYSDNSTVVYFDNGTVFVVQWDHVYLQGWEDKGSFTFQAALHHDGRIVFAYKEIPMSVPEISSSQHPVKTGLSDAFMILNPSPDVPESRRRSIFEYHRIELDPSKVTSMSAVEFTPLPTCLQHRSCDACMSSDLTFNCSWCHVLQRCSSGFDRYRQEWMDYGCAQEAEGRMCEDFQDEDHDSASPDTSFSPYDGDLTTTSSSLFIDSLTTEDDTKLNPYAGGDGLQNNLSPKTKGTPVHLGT
Procedure: The high affinity interaction between compound 346 (Table 3) and the extracellular domain of PLXDC1 (PLXDC1-ECD). […] Tryptophan fluorescence without the compound added is defined as 1. The estimated Kd value is 50 nM.

[5] = tested on: choroidal endothelial cells; test: Ex vivo model of choroidal angiogenesis (choroidal neovascularization); type: cell-based; conditions: 10 μM
Procedure: FIG. 2A-E. Comparison of compound 369 with the current anti-angiogenic drug in an ex vivo model of choroidal angiogenesis. A. A schematic diagram of the timeframe of the experiment. […] Treatment lasts for two days before cell death and survival are analyzed. B. Control experiment without any drug treatment at day 7. The white circle in the middle delineates the piece of choroid/RPE that was embedded to initiate neovascularization. C. […] Eylea was added at 10 μM. […] The compound was added at 10 μM. In B-D, green cells are live cells and red cells are dead cells. E. Quantitation of the experiments described in B-D. The amount of new endothelial cells in the untreated control is defined as 100%.

SMILES | Gfi1b promotor activity in PLXDC1-expressing cells (PLXDC1) | Gfi1b promotor activity in PLXDC2-expressing cells (PLXDC2) | cytotoxicity at 20 µM [1] [%] | tumor growth (shrinkage) [2] | healthy blood vessels in ischemia-induced retinopathy [3] | pathogenic blood vessels in ischemia-induced retinopathy [3] | suppression of endogenous tryptophan fluorescence of PLXDC1-ECD ([4]; different concentrations, fluorescence without compound = 1) | Kd ([4]; estimated from dose-dependent suppression of PLXDC1-ECD tryptophan fluorescence) [nM] | effect on new endothelial cells in choroidal angiogenesis ([5]; treatment starts after 7 days of angiogenesis, lasts two days, live/dead staining) | effect on healthy tissue (choroid and RPE) ([5]; two days treatment)
O=c1[nH]cc(F)c(=O)[nH]1 [Fluorouracil, reference compound] | does not activate this promoter | – | – | – | – | – | – | – | – | –
CCCCCCCCCCCCOc1ccc(S(=O)(=O)c2cnc3ccc([S+](C)[O-])cc3c2N2CCC(N3CCC(N4CCCCC4)CC3)CC2)cc1 (stereo not drawn) [compound 342, 4-([1,4′:1′,4″-terpiperidin]-1″-yl)-3-((4-(dodecyloxy)phenyl)sulfonyl)-6-(methylsulfinyl)quinoline] | highly activated the promotor activity in PLXDC1-expressing cells | activated the promotor activity in PLXDC2-expressing cells | 60 | – | – | – | – | – | – | –
CCCCCCCCCCCCCCOc1ccc(S(=O)(=O)c2cnc3ccc([S+](C)[O-])cc3c2N2CCC(N3CCC(N4CCN(C)CC4)CC3)CC2)cc1 (stereo not drawn) [compound 346, 4-(4-(4-methylpiperazin-1-yl)-[1,4′-bipiperidin]-1′-yl)-6-(methylsulfinyl)-3-((4-(tetradecyloxy)phenyl)sulfonyl)quinoline] | highly activated the promotor activity in PLXDC1-expressing cells | activated the promotor activity in PLXDC2-expressing cells | 20 | shrank the tumors significantly | improving the amount of healthy blood vessels | specifically suppressed pathogenic blood vessels in vivo without affecting healthy blood vessels; also recorded: highly suppressed pathogenic blood vessels | suppressed the endogenous tryptophan fluorescence of PLXDC1-ECD in a dose-dependent manner | 50 | – | –
CCCCCCCCCCCCCCOc1ccc(S(=O)(=O)c2cnc3ccc([S+](C)[O-])cc3c2N2CCC(N3CCC(N4CCN(CCO)CC4)CC3)CC2)cc1F (stereo not drawn) [compound 369, 2-(4-(1′-(3-((3-fluoro-4-(tetradecyloxy)phenyl)sulfonyl)-6-(methylsulfinyl)quinolin-4-yl)-[1,4′-bipiperidin]-4-yl)piperazin-1-yl)ethanol] | – | – | 20 | – | – | – | – | – | can kill the new endothelial cells in choroidal angiogenesis | Choroid and RPE are still alive after the treatment; also recorded: without affecting the healthy tissue
